The values that follow come from publication PMC6704710, “Preclinical evaluation of 3D185, a novel potent inhibitor of FGFR1/2/3 and CSF-1R, in FGFR-dependent and macrophage-dominant cancer models” (Journal of Experimental & Clinical Cancer Research : CR, 2019).

What is called inhibition is the change of the read-out against control, counted positive when it falls.

SMILES strings stand for the structures.

Holding throughout (experiment): Eurofins kinase panel
Common to all, as to type: biochemical

One test addresses T1, DYRK2(h) (Homo sapiens, UniProt Q92630).
T1 construct: purchased Eurofins (KinaseProfiler)
T1 sequence (Q92630 1-601): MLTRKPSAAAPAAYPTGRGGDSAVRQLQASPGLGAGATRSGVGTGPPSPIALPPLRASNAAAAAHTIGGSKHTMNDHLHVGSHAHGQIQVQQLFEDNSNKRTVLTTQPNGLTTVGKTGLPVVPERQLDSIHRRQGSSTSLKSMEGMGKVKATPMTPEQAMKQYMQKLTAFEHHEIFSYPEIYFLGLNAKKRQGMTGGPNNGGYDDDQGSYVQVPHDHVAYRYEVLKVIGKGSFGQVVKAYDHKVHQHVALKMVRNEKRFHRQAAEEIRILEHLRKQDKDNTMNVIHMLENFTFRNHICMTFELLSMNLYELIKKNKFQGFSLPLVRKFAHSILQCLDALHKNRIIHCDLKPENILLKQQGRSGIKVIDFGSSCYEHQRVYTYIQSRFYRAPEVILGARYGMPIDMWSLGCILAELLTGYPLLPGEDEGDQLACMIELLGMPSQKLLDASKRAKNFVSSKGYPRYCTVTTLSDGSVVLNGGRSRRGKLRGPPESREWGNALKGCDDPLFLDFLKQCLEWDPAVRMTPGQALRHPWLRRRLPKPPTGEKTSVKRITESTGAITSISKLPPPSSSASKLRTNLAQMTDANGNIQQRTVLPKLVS
The following applies: read-out: Inhibition rate (%). Here is the method: (§1) Active FGFR1–4, VEGFR1, KDR, VEGFR3, PDGFRα and PDGFRβ proteins were purchased from Eurofins (Fremont, United States), and kinase activity was assessed using ELISA, as previously reported. […]. Increasing concentrations of ATP were diluted for the kinase reaction in the ATP competition assay. CSF-1R kinase activity was analyzed using the Z’-LYTE™ Kinase Assay Kit (Thermo Fisher, United States). The assay formats are described in the SelectScreen Kinase Profiling Service Zlyte protocol. IC50 values were calculated by dose-response curve fitting using Prism (Graph Pad).

The target in another test is T2, CDK5/p25(h) (Homo sapiens, UniProt Q00535).
T2 construct: purchased Eurofins (KinaseProfiler)
The following applies: read-out: Inhibition rate (%). Here is the method: as §1

The target in a further test is T3, Rsk2(h) (Homo sapiens, UniProt P51812).
T3 construct: purchased Eurofins (KinaseProfiler)
Particulars: read-out: Inhibition rate (%). The method, then:
as §1

A further test concerns the target T4, Flt3(D835Y)(h) (Homo sapiens, UniProt P36888, D835Y).
T4 construct: purchased Eurofins (KinaseProfiler)
T4 sequence (P36888 27-993 D835Y): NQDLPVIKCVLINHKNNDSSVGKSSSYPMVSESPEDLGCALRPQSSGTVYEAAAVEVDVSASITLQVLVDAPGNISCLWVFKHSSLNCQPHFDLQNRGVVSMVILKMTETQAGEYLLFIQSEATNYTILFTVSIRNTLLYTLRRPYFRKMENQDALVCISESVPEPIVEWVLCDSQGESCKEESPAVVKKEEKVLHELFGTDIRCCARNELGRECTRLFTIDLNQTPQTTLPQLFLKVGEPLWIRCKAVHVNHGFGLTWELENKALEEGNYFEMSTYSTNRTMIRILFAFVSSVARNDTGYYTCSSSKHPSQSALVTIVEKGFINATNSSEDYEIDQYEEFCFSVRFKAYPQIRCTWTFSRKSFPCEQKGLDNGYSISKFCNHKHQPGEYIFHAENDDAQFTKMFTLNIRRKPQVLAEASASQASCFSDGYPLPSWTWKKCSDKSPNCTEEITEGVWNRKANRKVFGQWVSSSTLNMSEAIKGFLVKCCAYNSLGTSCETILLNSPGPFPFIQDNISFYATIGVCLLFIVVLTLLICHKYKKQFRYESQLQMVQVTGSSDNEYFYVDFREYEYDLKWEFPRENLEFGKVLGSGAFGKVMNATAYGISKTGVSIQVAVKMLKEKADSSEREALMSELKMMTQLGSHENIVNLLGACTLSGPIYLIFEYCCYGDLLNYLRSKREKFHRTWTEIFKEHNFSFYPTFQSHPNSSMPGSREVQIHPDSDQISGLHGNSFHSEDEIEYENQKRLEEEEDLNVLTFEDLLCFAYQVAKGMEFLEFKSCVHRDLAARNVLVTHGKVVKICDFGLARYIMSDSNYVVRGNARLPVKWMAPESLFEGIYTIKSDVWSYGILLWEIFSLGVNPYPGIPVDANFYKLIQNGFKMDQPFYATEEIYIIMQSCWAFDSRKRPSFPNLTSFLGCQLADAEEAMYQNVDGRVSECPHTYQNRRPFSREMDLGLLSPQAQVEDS
Particulars: read-out: Inhibition rate (%). Here is the method: as §1

A further test concerns ROCK-II(r). Here is the method: as §1
Another test has as its target T5, STK32C(h) (Homo sapiens, UniProt Q86UX6).
T5 construct: purchased Eurofins (KinaseProfiler)
Particulars: read-out: Inhibition rate (%). The method, then: as §1

A further test addresses T6, A-Raf(h) (Homo sapiens, UniProt P10398).
T6 construct: purchased Eurofins (KinaseProfiler)
T6 sequence (P10398 1-606): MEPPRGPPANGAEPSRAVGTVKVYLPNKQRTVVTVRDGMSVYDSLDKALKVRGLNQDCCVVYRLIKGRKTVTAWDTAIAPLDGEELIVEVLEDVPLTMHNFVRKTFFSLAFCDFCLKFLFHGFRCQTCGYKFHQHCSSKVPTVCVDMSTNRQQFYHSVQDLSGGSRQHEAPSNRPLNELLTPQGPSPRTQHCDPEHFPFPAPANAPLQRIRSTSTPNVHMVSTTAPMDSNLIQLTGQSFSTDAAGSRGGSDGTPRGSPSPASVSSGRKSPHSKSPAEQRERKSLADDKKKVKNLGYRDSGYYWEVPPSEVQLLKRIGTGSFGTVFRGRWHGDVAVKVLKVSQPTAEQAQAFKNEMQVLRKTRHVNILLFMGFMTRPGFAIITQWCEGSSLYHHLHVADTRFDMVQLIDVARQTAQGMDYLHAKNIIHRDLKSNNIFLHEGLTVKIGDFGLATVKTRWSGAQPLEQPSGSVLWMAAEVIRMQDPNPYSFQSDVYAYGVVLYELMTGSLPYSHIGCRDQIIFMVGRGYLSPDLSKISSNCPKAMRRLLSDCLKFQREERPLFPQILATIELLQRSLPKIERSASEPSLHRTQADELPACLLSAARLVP
Particulars: read-out: Inhibition rate (%). Here is the method:
as §1

The next test concerns the target T7, GRK5(h) (Homo sapiens, UniProt P34947).
T7 construct: purchased Eurofins (KinaseProfiler)
The following applies: read-out: Inhibition rate (%). The method, then: as §1

T5 sequence (Q86UX6 whole entry): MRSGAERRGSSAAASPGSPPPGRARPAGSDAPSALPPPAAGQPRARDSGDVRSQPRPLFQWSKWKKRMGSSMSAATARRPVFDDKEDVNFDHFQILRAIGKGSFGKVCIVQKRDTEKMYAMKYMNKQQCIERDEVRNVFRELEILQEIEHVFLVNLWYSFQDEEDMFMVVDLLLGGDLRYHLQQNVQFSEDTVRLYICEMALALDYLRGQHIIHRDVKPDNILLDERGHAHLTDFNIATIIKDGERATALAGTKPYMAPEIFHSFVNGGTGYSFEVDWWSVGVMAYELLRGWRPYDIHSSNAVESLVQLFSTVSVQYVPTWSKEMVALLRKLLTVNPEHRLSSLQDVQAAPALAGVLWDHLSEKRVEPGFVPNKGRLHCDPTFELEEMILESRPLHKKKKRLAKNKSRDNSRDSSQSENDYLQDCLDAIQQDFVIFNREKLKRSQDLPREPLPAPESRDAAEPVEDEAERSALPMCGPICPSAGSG
T7 sequence (P34947 whole entry): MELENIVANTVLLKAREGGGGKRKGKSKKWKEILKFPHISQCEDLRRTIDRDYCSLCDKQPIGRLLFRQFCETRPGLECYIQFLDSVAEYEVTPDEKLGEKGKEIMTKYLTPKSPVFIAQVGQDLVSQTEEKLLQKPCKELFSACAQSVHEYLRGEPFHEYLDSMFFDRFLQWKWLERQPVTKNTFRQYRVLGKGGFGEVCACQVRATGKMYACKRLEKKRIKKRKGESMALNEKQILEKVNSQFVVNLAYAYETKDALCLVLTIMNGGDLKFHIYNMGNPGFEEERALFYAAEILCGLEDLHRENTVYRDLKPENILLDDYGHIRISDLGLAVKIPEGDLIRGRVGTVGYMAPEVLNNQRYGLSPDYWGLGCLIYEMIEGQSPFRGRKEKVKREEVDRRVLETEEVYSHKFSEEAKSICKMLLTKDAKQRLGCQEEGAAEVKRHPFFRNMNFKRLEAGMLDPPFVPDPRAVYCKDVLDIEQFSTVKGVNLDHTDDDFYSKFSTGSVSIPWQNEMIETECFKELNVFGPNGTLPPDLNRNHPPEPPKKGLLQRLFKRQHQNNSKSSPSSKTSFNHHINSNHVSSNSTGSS
T2 sequence (Q00535 whole entry): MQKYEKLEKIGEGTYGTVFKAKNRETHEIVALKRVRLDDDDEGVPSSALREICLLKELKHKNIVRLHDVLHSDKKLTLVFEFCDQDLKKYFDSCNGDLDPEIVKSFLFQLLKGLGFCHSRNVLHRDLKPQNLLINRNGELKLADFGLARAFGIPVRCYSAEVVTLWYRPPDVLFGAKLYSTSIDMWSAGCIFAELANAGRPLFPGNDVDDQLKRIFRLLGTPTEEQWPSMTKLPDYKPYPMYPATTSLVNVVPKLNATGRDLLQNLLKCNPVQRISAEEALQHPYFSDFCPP
T2 sequence (Q15078 99-307 partner limits assumed): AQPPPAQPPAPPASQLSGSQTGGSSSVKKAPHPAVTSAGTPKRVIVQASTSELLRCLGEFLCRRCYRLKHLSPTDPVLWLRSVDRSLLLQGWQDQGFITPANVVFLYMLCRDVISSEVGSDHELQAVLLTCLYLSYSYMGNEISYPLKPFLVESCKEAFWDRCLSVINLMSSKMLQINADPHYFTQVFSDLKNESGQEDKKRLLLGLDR
T3 sequence (P51812 whole entry): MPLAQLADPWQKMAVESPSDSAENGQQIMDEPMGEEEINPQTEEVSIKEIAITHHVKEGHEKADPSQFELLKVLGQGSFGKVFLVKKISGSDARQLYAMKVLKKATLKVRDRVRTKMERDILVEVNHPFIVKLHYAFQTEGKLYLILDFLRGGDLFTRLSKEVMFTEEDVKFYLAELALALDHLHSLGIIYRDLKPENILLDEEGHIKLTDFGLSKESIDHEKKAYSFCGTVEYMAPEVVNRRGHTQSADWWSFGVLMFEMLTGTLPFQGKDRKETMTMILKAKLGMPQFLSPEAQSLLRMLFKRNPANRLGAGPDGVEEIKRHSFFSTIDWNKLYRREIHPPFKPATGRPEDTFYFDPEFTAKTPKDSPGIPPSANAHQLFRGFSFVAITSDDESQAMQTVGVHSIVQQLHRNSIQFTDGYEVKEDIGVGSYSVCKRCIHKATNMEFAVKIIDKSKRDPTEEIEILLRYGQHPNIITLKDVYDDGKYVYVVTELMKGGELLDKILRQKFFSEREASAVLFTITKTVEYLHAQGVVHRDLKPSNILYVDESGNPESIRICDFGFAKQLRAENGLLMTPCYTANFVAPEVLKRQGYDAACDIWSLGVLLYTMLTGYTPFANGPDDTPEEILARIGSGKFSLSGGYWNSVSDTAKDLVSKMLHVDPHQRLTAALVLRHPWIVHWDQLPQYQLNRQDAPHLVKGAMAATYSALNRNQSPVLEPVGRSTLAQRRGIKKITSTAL

Turning to `COc1cc(OC)c(Cl)c(-c2ccc3c(NC(=O)c4ccc(N5CCNC(C)(C)C5)cc4)n[nH]c3n2)c1Cl` [3D185], the inhibition at 0.01 µM is -1% on DYRK2(h) (10 nM); 10% on CDK5/p25(h) (10 nM); -19% on Rsk2(h) (10 nM); -1% on Flt3(D835Y)(h) (10 nM); 11% at STK32C(h) (10 nM); -7% at A-Raf(h) (10 nM). In addition, on GRK5(h) (10 nM), the inhibition at 0.01 µM is -1%. The inhibition at 0.1 µM at DYRK2(h) (100 nM) is -1%; at CDK5/p25(h) (100 nM) it was 4%; at Rsk2(h) (100 nM) it was 0%; at Flt3(D835Y)(h) (100 nM), -6%; on STK32C(h) (100 nM), 8%; at A-Raf(h) (100 nM) it was -7%. Further, the inhibition at 0.1 µM on GRK5(h) (100 nM) is -9%. In addition, the inhibition at 1 µM is 12% on DYRK2(h) (1000 nM); 3% at CDK5/p25(h) (1000 nM); 24% at Rsk2(h) (1000 nM); 5% on Flt3(D835Y)(h) (1000 nM); 7% at STK32C(h) (1000 nM); -4% at A-Raf(h) (1000 nM). Further, the inhibition at 1 µM at GRK5(h) (1000 nM) turned out to be 3%. Also, the entries for the “Inhibition rate (%)” value with ROCK-II(r) (10 nM), in the test on ROCK-II(r) (100 nM) and with ROCK-II(r) (1000 nM) were -3%, 0% and -1%, respectively.
